Here are results for two compounds from US9439874B2, “Food composition for nourishing, maintaining and cultivating a variety of stem cells and a method for manufacturing the same” (THE WRITER OF RESVERATROL BIOTECH R&D CO., LTD., priority 2012, dated 2016).

For series [1], the system named is rat mesenchymal stem cells. Conditions: cited from earlier work.
In series [2] the test system is human lung adenocarcinoma A549 cells. The conditions noted are these: 20 μM, EGF-induced; cited from earlier work.
The conditions of series [3]: cited from earlier work.
Series [4] deals with human gastric cancer BGC823 cells. Conditions: cited from earlier work.
Series [5] is described as follows: isomerization under irradiation of UV analyzer. The format is physicochemical. The conditions noted are these: UV analyzer 136 μw/cm^2, embedded vs unembedded. From the text: 2. Solutions to the problem of cis & trans structures and transformation of resveratrol. Trans-resveratrol is very instable and will transform into cis-resveratrol under the UV irradiation. After its aqueous solution (pH1-7) kept in dark place for 28 day, 4.7% of the trans-resveratrol will transform into cis-resveratrol. Low water solubility and poor stability under UV irradiation restrict the all-purpose application. Therefore, HP-β-CD is used to embed the resveratrol into inclusion compound. […] Moreover, the food formula packaged by capsule solves the problems of oxidization misgivings and stability.

Series [6] concerns cervical cancer Hela cells. Conditions: cited from earlier work.
Series [7] relates to nematodes, drosophila, African Carp and mouse. The conditions noted are these: cited from earlier work.
In a further series the test system is Lewis lung carcinoma. Conditions: mouse, in vivo; cited from earlier work.
The subject of the next series is L-8. Conditions: mouse, in vivo; cited from earlier work.
Series [8] has as its system human telomerase reverse transcriptase (hTERT). Conditions: dose- and time-dependent; cited from earlier work.
A further series deals with Lymphoma Raji cells. The conditions noted are these: in vitro; cited from earlier work.
For a further series, the system named is MDA-MB-231 cell. Conditions: combination with TRAIL; cited from earlier work.
Series [9] relates to malignant glioma cell line U87 and cancer stem cells (CSCs). The conditions noted are these: cited from earlier work.
A further series deals with cancer stem cells. Conditions: cited from earlier work.
The test system of a further series is esophageal cancer cell. The conditions noted are these: cited from earlier work.
In series [10] the test system is human laryngeal cancer Hep-2 cell. The conditions noted are these: cited from earlier work.

On to `O=c1c(O)c(-c2ccc(O)c(O)c2)oc2cc(O)cc(O)c12` [quercetin], for which the “proliferation and differentiation of mesenchymal stem cells of bone marrow” value in series [1] was “promote”. In addition, the “expression of BMP2 mRNA” value in [1] (differentiation of mesenchymal stem cells) is listed as “increase”.
Consider `Oc1ccc(C=Cc2cc(O)cc(O)c2)cc1` [resveratrol], for which, in series [2], the “A549 cells' invasion” value is reported as “inhibit”. Moreover, the “solubility in organic solvents” value in [3] (ethyl ether, chloroform, methanol, ethanol, acetone, acetic ether) is listed as “soluble”. In addition, in series [3] (water), the solubility in water entry is “hardly soluble (slightly soluble)”. Also, the “proliferation of BGC823 cells” value in series [4] is reported as “inhibit”. For the same compound, in series [4] (with the extension of the time), the “telomerase activity in BGC823” value was “declined”. For the same compound, the “isomerization under UV irradiation” value in series [5] is listed as “quickens up isomerization”. The “in vitro growth of cervical cancer Hela cells” value in [6] is “obvious inhibition effects”. Besides, in series [7], the prolongation of life is 30-75%. For the same compound, the “growth of Lewis lung carcinoma in mice” value with Lewis lung carcinoma is recorded as “inhibiting the growth”. Also, the “tumor-bearing mice L-8 generation” value with L-8 was “inhibit”. Also, the “expression of hTERT mRNA and protein” value in series [8] is “down-regulated”. Moreover, in the series on Lymphoma Raji cells, the “IL-8 mRNA expression of lymphoma Raji cells” value is on record as “inhibit” and the “proliferation of lymphoma Raji cells” value is listed as “inhibit”. The TRAIL-induced cell apoptosis entry with MDA-MB-231 cell is on record as “enhanced”. For the same compound, the “apoptosis of U87 and cancer stem cells” value in [9] was “induce”. Also, the “cancer stem cells survival” value in the series with cancer stem cells (high concentration of resveratrol with radiotherapy) was “one-third”. The enhancement of radiotherapy with cancer stem cells (high concentration of resveratrol, mice bearing tumor) is on record as 30%-50%. Besides, the “esophageal cancer cell apoptosis” value in the series on esophageal cancer cell was “induce”. Besides, the Hep-2 cell proliferation result in series [10] was “suppress”.
